Experimental data reported in patent US9877681B2, ““Micro-patch” for assessment of the local microvasculature and microcirculatory vasoreactivity” (priority 2007, dated 2018).
Entries after “also recorded” stand apart in the source; their conditions may differ. Where two headings read alike, the source gives them in different places.

Key:
[1] = tested on: local microvasculature (forehead); test: Study B: acetylcholine and nitroglycerin micro-patches, laser Doppler flowmetry of forehead perfusion in patients with diabetes; assay type: in vivo, human; conditions: 10 diabetic patients with retinopathy
Description: Methods: For each session, subjects lay on a bed in a semi-recumbent position in a temperature-controlled room (24+1° C.). A three-lead electrocardiogram and a noninvasive brachial artery blood pressure cuff were applied. The three laser Doppler flowmetry probes with customized acetylcholine, nitroglycerin, and placebo micro-patches (as described above) attached were adhered onto the three double-stick discs on the forehead so as to enable undisturbed monitoring and drug delivery. Laser Doppler flowmetry monitoring was performed continuously at each site until a vasodilatory plateau was maintained for ≧3 minutes or for a maximum of 20 minutes. Data were collected at a rate of 1000 Hz using Chart for Windows (ADlnstruments, Colorado Springs, Colo.).
The local microvascular effects of transdermal acetylcholine and nitroglycerin were first tested in 10 healthy volunteers (7 males, 3 females; mean age 36.1, range 19 to 56 years) without vascular disease or diabetes. […]
An investigator blinded to the status of the subject and to the nature of the study site assessed the laser Doppler tracing at each study site. […] The effects of the single dose of acetylcholine was compared to the single dose of nitroglycerin in the healthy volunteers, with the differences analyzed using Wilcoxon Signed Rank Test (WSRT). […]

[2] = tested on: local microvasculature (forehead); test: Laser Doppler scanner imaging of micro-patch sites on the forehead; assay type: in vivo, human; conditions: several minutes after application, FIGS. 22-24
From the text: Another alternative is provided by the laser Doppler scanning imager. […] [Wardell K, Braverman I M, Silverman D G, Nilsson G E: Spatial heterogeneity in normal skin perfusion recorded with laser Doppler imaging and flowmetry. Microvascular Research 48(1):26-38, 1994 July]. […] This is accomplished by rapidly scanning an area by a shifting light that is sequentially directed to successive study sites by a mirror. […] This is because the laser Doppler scanner typically monitors a given site for fractions of a second. […] Compromises include rapidly scanning all sites at repeat intervals for a long enough period to overcome the effects of pulsations and oscillations. However, a relatively long interval is required to ensure this. Thus, the laser Doppler scanner mitigates spatial variability at the expense of temporal variability (e.g., beat-to-pulsations with each heart beat as well as oscillations in activity as a component of autonomic regulation of blood vessels).

[3] = tested on: forearm blood flow; conditions: Iontophoresis, inc, cited from earlier work
[4] = tested on: local microvasculature (forehead); test: Study B: acetylcholine and nitroglycerin micro-patches, laser Doppler flowmetry of forehead perfusion in healthy volunteers; assay type: in vivo, human; conditions: for increase in laser Doppler flowmetry readings, mean (95% CI): 10 healthy volunteers, forehead, plateau vs baseline; for time to marked rise in laser Doppler flowmetry voltage (flux) after drug application: each healthy volunteer; for blood flow at the micro-patch site, representative tracings: one healthy subject, FIG. 19
From the text: (§1) Mixing was accomplished to achieve a final product that was smooth and free of abrasive particles. Based on trial and error testing, it was elected to pursue testing with acetylcholine chloride powder dissolved in water for placement on an adherent surface (e.g., clear tape). […] This dose is proportional to doses of MIOCHOL-E,™ (that is, a clinically available acetylcholine preparation that is used to produce papillary constriction (miosis) during cataract surgery) that had been tested in preliminary trials. However, the agent used for micro-patches can be superconcentrated compared to the solution used for intraocular injection—made possible because of the small delivery area.
The dry side of the acetylcholine “micro-patch” was adhered to the end of a laser Doppler flowmetry probe (a PF 5010 with Probe Model 407, Perimed, Sweden in accordance with a preferred embodiment) (see FIGS. 1 and 2). A sham drug micro-patch was made in the same way with 0.02-mL of HPLC-grade water instead of acetylcholine solution. Before micro-patch application, a DOUBLE-STICK DISC™ (3M Health Care, Neuss, Germany) (that is, the double-sided adhesive ring 6 discussed above) with an overall diameter of 38.1-mm and a central hole (or opening) diameter of 8.7-mm is placed at the site to be tested. The double-sided adhesive ring 6 serves as an adherent base onto which a monitor such as a laser Doppler flowmetry probe 1 is placed as well as to define the area (59.4-mm^2) for drug application. In addition to providing for targeted adherence, when placed between the micro-patch 2 and the study surface (as shown in FIG. 1) this further limits the area of drug delivery by providing a barrier to drug delivery from the outer regions of the micro-patch 2. As detailed below, this delivered as much as 10% of that used to constrict the pupil during cataract surgery Dose-response curve can be assessed with serial dilutions. […] Laser Doppler flowmetry is an exemplary form of potential monitoring (used in each of the Table 2 studies).
The creation of a nitroglycerin micro-patch so as to enable concurrent monitoring of an endothelium-dependent transdermal preparation (acetylcholine, described above) and an endothelium-independent vasodilator (nitroglycerin) is simpler than the creation of the acetylcholine micro-patch. […] The present invention provides not only for the application of the disclosed method for monitoring the local circulation but the tailoring of the micro-patch to ensure effective delivery throughout the monitoring site while avoiding delivery of excess drug that might predispose to remote and/or systemic effects. For a single laser Doppler flowmetry probe, the nitroglycerin micro-patch may be obtained by using a standard hole-punch to cut a 6-mm diameter (28.3-mm^2 area) section of a full size 0.6 mg/hr MINITRAN™ nitroglycerin patch (3M, Minnesota). Alternatively, for applications where one wishes to move the laser Doppler flowmetry probe so as to encompass a larger area (as with the inventive assembly in FIG. 16), a small rectangle may be appropriate. Such patches are designed for homogeneous delivery of drug at a rate of 0.03-mg/hour per 100-mm^2 area of patch, such that the section used in the inventive micro-patch delivered at a rate of approximately 0.008-mg/hr. Although not currently available, lesser or higher concentrations of nitroglycerin may be used for micro-patches, pending dose response studies to confirm local efficacy and lack of systemic effects. The nitroglycerin micro-patch then is placed onto a double-sided adhesive ring for adherence to a monitoring probe (see FIGS. 1 and 2) or it may be placed on the tissue under an elevated support assembly 131 or scanner (described below).
Methods: For each session, subjects lay on a bed in a semi-recumbent position in a temperature-controlled room (24+1° C.). A three-lead electrocardiogram and a noninvasive brachial artery blood pressure cuff were applied. […]

[5] = tested on: forehead blood flow; test: Non-iontophoretic transdermal acetylcholine at the forehead, laser Doppler flowmetry (Table 2); assay type: in vivo, human; conditions: Silverman, <0.25 ml of 1%, inc
From the text: as §1
The dry side of the acetylcholine “micro-patch” was adhered to the end of a laser Doppler flowmetry probe (a PF 5010 with Probe Model 407, Perimed, Sweden in accordance with a preferred embodiment) (see FIGS. 1 and 2). A sham drug micro-patch was made in the same way with 0.02-mL of HPLC-grade water instead of acetylcholine solution. […] As detailed below, this delivered as much as 10% of that used to constrict the pupil during cataract surgery Dose-response curve can be assessed with serial dilutions. […]

[6] = tested on: local microvasculature (finger); test: Laser Doppler scanner imaging of micro-patch sites on the fingers; assay type: in vivo, human; conditions: FIG. 25
From the text: Nitroglycerin induces vasodilation independent of the parasympathetic pathways. […] Anesthesiology 2004;101:A246] and phenylephrine [Silverman D G, Stout R G: Distinction between atropine-sensitive control of microvascular and cardiac oscillatory activity. Microvasc Res 63:196-208, 2002].

[7] = tested on: local microvasculature; test: Fast Fourier transformation (FFT) of signals at micro-patch sites; assay type: in vivo, human
From the text: This leads to present disclosure of a means to overcome the potential confusion: I herein introduce the application of spectral domain analysis [fast Fourier transformation (FFT), alluded to above, and variations thereof such as joint time frequency)] to characterize PTT values. This enables comparative assessment of: FFT of PTTPPG (primarily influenced by arrival of the stroke volume at underlying artery), FFT of PTTlaserDoppler (arrival of stroke volume at microvasculature), and FFT of PTTPPG-LaserDoppler.
Once combined monitoring becomes available at a given site, and then concurrent FFT analysis of PTT of artery, acv and vein will enable one to delineate the sites of microvascular and neuro-microvascular activity. In addition to micro-patch induced changes in readings between sites of measurement (e.g. PTT), we can also measure changes at sites of measurement (e.g., mean, heights). Again, confounders such as different units and differing criteria for onset may be avoided with FFT.

[8] = tested on: local microvasculature (finger); test: Micro-patch applied to the finger, laser Doppler flowmetry; assay type: in vivo, human
From the text: The difference likewise is seen in results generated by a laser Doppler scanner (discussed below).

[9] = tested on: local microvasculature (forehead)
Description: Prior to the customization of nitroglycerin according to the present invention, nicotine was customized in accordance with the purposes of present invention. This entailed customization of a commercially available clear NICODERM patch, nicotine delivery patch, (with 0.83 mg of nicotine/cm^2). Again, lesser or higher concentrations may be used for a micro-patch; these are not currently available, since currently available nicotine patches delivery a fixed dose/cm^2 patch such that a higher systemic dose is obtained by using a larger patch.
The preliminary investigations with nicotine micro-patches (0.83 mg/cm^2) entailed customizing a section of the micro-patch so that it adhered to an area of skin that was sufficient to deliver drug to the area under a laser Doppler flowmetry probe and that enabled attachment of the laser Doppler flowmetry probe to an upper surface of the micro-patch.

[10] = tested on: local microvasculature (forehead); test: Study D: impact of fatty meal on responses to nitroglycerin and acetylcholine micro-patches; assay type: in vivo, human; conditions: 10 minutes after patch application
Description: Two hours later, subjects underwent application of acetylcholine and nitroglycerin micro-patches. As described above, the former was prepared by mixing 100 mg of solid acetylcholine with […] of sterile water. From this solution (concentration of 14.3 mg/ml) we used an aliquot of just under 0.14 ml (less than 10% of the standard 20 mg dose injected into the eye during cataract surgery). The latter consisted of a 1.4 cm×1.4 cm translucent square (cut from a full-sized nitroglycerin patch) to delivery 0.008 mg/hr of nitroglycerin to the study site. Before each patch application, seven sites of the forehead were monitored with a commercially available integrating laser Doppler flowmetry probe that averages the output from several closely packed light-transmitting channels (to partially overcome spatial heterogeneity). At 10 minutes after patch application, readings were repeated. Changes were analyzed using paired t-test.

[11] = tested on: local microvasculature (forehead); conditions: scopolamine applied with/before nicotine, FIG. 18

Structure (SMILES)	mean percent increase in blood flow (95% CI) [1]	relative blood flow at the micro-patch site (laser Doppler scanner) [2]	increase in laser Doppler flowmetry readings, mean (95% CI) [4]	time to marked rise in laser Doppler flowmetry voltage (flux) after drug application [4]	blood flow at the micro-patch site, representative tracings [4]	flow at the micro-patch site (laser Doppler scanner) [6]	change in flow when applied to the finger [8]	other results
CC(=O)OCC[N+](C)(C)C.[Cl-] [acetylcholine, acetylcholine chloride]	156% (91%-221%)	increase in relative blood flow; also recorded: increased blood flow	406% (245%-566%)	two	Prompt increases in blood flow			Change in Blood Flow ([3]; Morris, approx 0.25 ml of 1%): 50-100%; Change in Blood Flow ([3]; Noon, approx 0.25 ml of 2%): 1000%; change in systemic blood pressure and heart rate ([4]; human, in vivo): lack of significant change; Change in Blood Flow [5]: 50-250%
CN1CCCC1c1cccnc1 (stereo not drawn) [nicotine]		increase in relative blood flow; also recorded: caused vasodilation; also recorded: greatest flow				lack of increased flow	no significant change	change in the 0.03-0.12 Hz frequency range by FFT ([7]; 0.03-0.12 Hz): marked increase; oscillatory activity at micro-patch site by FFT ([7]; in vivo): marked oscillatory activity; increase in flow at the active site ([9]; button-sized translucent micro-patch, forehead of seven healthy subjects): 388.4%; response at a remote site or in systemic indices (heart rate, blood pressure, flow at other sites) ([9]; drug delivery limited to the micro-patch): no response; flow at the nicotine site relative to baseline (laser Doppler flowmetry) ([9]; forehead, between 5 and 15 minutes after application, FIG. 17): approximately 300 % of baseline; increase in local blood flow ([9]; transdermal application at the forehead, within 30 min): 2-5 fold; local microvasculature's response to the micro-patch ([9]; transdermal micro-patch): vasodilation
O=[N+]([O-])OCC(CO[N+](=O)[O-])O[N+](=O)[O-] [nitroglycerin]	116% (79%-153%)	increase in relative blood flow; also recorded: caused vasodilation; also recorded: Increased flow	365% (179%-550%)	two	Prompt increases in blood flow	induced vasodilation; also recorded: flow increased	significant change	nitroglycerin/acetylcholine ratio of induced increase ([10]; two hours after fat-laden meal): 1.31; nitroglycerin/acetylcholine ratio of induced increase ([10]; two hours after nonfat meal): 0.94; change in systemic blood pressure and heart rate ([4]; healthy volunteers): lack of significant change
CN1[C@@H]2C[C@@H](OC(=O)[C@H](CO)c3ccccc3)C[C@H]1[C@@H]1O[C@@H]12 [scopolamine]								effect of scopolamine on the nicotine-induced increase in perfusion [11]: blunted; also recorded: inhibition
